In PMC9032380, “Functional exploration of the glycoside hydrolase family GH113” (PLoS ONE, 2022):

What was measured:
Test in all cases: HPAEC-PAD of hydrolysis products
Format in all cases: biochemical
[1] = molecular target: T1, EDP22100 (Faecalibacterium prausnitzii, UniProt A8S9T0); settings: 100 uM M6, 10 mM phosphate pH 7.5, 25 C; reaction time course
T1 construct: gene FAEPRAM212_01134; predicted GH113 catalytic domain; no signal peptide predicted; N-terminal His6 tag (pHTP1), E. coli BL21(DE3); codon-optimised synthetic gene
T1 sequence (A8S9T0 1-309): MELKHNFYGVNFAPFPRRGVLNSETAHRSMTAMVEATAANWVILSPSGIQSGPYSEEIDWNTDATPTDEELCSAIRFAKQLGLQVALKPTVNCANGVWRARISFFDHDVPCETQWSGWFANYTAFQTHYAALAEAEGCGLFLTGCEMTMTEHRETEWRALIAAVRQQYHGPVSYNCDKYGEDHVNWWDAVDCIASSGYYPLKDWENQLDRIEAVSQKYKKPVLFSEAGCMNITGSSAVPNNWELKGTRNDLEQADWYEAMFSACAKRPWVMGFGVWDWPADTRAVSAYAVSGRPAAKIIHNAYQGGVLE

[2] = molecular target: T2, AGY82530 (Carnobacterium inhibens, UniProt A0ABR7TC15); settings: […] M6, […] phosphate pH […] C; overnight incubation
T2 construct: gene GLO26_06385; predicted GH113 catalytic domain; no signal peptide predicted; N-terminal His6 tag (pHTP1), E. coli BL21(DE3); codon-optimised synthetic gene
T2 sequence (A0ABR7TC15 1-309): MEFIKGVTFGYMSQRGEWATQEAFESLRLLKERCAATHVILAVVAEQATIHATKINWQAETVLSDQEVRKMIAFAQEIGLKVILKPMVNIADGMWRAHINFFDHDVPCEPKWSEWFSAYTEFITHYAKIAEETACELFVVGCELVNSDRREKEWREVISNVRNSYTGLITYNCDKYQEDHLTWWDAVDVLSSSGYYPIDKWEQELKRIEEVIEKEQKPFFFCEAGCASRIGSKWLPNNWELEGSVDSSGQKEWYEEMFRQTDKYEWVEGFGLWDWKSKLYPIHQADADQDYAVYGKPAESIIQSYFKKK

[3] = molecular target: T3, AIQ46016 (Paenibacillus sp. FSL R7-0273, UniProt A0A089KA84); settings: […] M6, […] phosphate pH […] C; overnight incubation
T3 construct: gene R70723_09070; predicted GH113 catalytic domain; no signal peptide predicted; N-terminal His6 tag (pHTP1), E. coli BL21(DE3); codon-optimised synthetic gene
T3 sequence (A0A089KA84 1-318): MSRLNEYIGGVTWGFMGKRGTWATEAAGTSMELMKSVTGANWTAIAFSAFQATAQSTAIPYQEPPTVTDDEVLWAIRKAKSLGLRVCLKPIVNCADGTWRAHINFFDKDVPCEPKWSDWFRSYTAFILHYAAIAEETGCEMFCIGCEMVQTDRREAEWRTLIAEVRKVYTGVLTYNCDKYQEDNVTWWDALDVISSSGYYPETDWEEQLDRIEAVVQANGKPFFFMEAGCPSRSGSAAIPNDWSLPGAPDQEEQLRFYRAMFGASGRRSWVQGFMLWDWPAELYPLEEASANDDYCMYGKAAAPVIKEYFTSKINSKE

## OC[C@H]1O[C@@H](O[C@H]2[C@H](O)[C@H](O)[C@H](O[C@H]3[C@H](O)[C@H](O)[C@H](O[C@H]4[C@H](O)[C@H](O)[C@H](O[C@H]5[C@H](O)[C@H](O)[C@H](O[C@H]6[C@H](O)[C@H](O)C(O)O[C@@H]6CO)O[C@@H]5CO)O[C@@H]4CO)O[C@@H]3CO)O[C@@H]2CO)[C@@H](O)[C@@H](O)[C@@H]1O (stereo partly drawn) [M6, mannohexaose]
[1]
  HPAEC-PAD of hydrolysis products: confirming the release of mannose from mannohexaose (M6)
[2]
  HPAEC-PAD of hydrolysis products: end-products released by AGY82530, AGF59019, AIQ46016 and AIQ63165 after overnight incubation with M6
[3]
  HPAEC-PAD of hydrolysis products: end-products released by AGY82530, AGF59019, AIQ46016 and AIQ63165 after overnight incubation with M6
